Experiments:
[1] = target: T1, β5 subunit of the human immunoproteasome (IPS) (Homo sapiens, UniProt P28062); assay: β5 inhibition assay, human immunoproteasome (Suc-LLVY-AMC); format: biochemical; conditions: IC50 class, Suc-LLVY-AMC substrate
T1 construct: purchased Boston Biochem E-370
Summary of the method: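 Human immunoproteasome (1 nM final) was preincubated 10 min at RT with compound in 100 mM HEPES pH 7.5, 50 mM NaCl, 0.02% SDS, 1 mM DTT. Suc-LLVY-AMC (22.6 μM final) was then added for 4 h at RT in the dark. After stopping with 1 μM bortezomib, AMC fluorescence was read (ex 355/em 460 nm).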

[2] = tested on: A549 (human lung carcinoma cell line); assay: Glo assay of A549 cells (Table 3; ProteasomeGlo plating scheme); format: cell-based; conditions: Homo sapiens; A549 cells; read-out: PGLo A549
Summary of the method: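 IC50 values (nM) come from a cell-based chymotrypsin-like Proteasome-Glo luminescence assay. Compound exposure ran 105 min at 37° C.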

Row | SMILES | IC50 [1] [nM] | IC50 [2] [nM]
1 | Cc1ccc2cc1CNC(=O)[C@H](CCc1ccccc1)NC(=O)[C@@H](NC(=O)OCc1ccccc1)CCC(=O)N1CCCC3(CC(C3)O2)C1 [Compound 301, benzyl ((7S,10S)-3^4-methyl-6,9,13-trioxo-7-phenethyl-2-oxa-5,8-diaza-14(3,1)-piperidina-3(1,3)-benzena-1(1,3)-cyclobutanatetradecaphane-10-yl)carbamate] | 500 to 1000 | 1000 to 5000
2 | CC(=O)N[C@H]1CCCC(=O)N(C)CCCCOc2ccc(C)c(c2)CNC(=O)[C@H](CCc2ccccc2)NC1=O [Compound 295, N-(1^4,7-dimethyl-8,13,16-trioxo-15-phenethyl-2-oxa-7,14,17-triaza-1(1,3)-benzenacyclooctadecaphane-12-yl)acetamide] | < 100 | 100 to 500
3 | CC(=O)N[C@H]1CC(=O)N2CCCC(CCOc3ccc(C)c(c3)CNC(=O)C(c3coc(C)n3)NC1=O)C2 (stereo partly drawn) [Compound 553, N-((12S)-5^4-methyl-9-(2-methyloxazol-4-yl)-8,11,14-trioxo-4-oxa-7,10-diaza-1(3,1)-piperidina-5(1,3)-benzenacyclotetradecaphane-12-yl)acetamide] | < 100 | 100 to 500
4 | CC(=O)N[C@H]1CC(=O)N2CCCC(CCOc3ccc(C)c(c3)CNC(=O)C(c3cnn(-c4ccccc4)c3)NC1=O)C2 (stereo partly drawn) [Compound 559, N-((12S)-5^4-methyl-8,11,14-trioxo-9-(1-phenyl-1H-pyrazol-4-yl)-4-oxa-7,10-diaza-1(3,1)-piperidina-5(1,3)-benzenacyclotetradecaphane-12-yl)acetamide] | < 100 | 100 to 500
5 | Cc1ccc2cc1CNC(=O)C(c1cnn(C)c1)NC(=O)CCCCC(=O)N1CCCC(CCO2)C1 (stereo not shown) [Compound 356, 5^4-methyl-9-(1-methyl-1H-pyrazol-4-yl)-4-oxa-7,10-diaza-1(3,1)-piperidina-5(1,3)-benzenacyclohexadecaphane-8,11,16-trione] | < 100 | 500 to 1000
6 | Cc1ccc2cc1CNC(=O)C(c1cnn(C)c1)NC(=O)[C@@H](NC(=O)CN1CCCC1)CC(=O)N1CCCC(CCO2)C1 (stereo partly drawn) [Compound 358, N-((12S)-5^4-methyl-9-(1-methyl-1H-pyrazol-4-yl)-8,11,14-trioxo-4-oxa-7,10-diaza-1(3,1)-piperidina-5(1,3)-benzenacyclotetradecaphane-12-yl)-2-(pyrrolidin-1-yl)acetamide] | < 100 | < 100
7 | Cc1ccc2cc1CNC(=O)[C@H](CCc1ccccc1)NC(=O)[C@@H](NC(=O)c1ncccn1)CC(=O)N1CCCC(CCO2)C1 (stereo partly drawn) [Compound 32, N-((9S,12S)-5^4-methyl-8,11,14-trioxo-9-phenethyl-4-oxa-7,10-diaza-1(3,1)-piperidina-5(1,3)-benzenacyclotetradecaphane-12-yl)pyrimidine-2-carboxamide] | < 100 | < 100
8 | Cc1n[nH]c(CC(=O)N[C@H]2CC(=O)N3CCCC(CCOc4ccc(C)c(c4)CNC(=O)[C@H](CCc4ccccc4)NC2=O)C3)n1 (stereo partly drawn) [Compound 332, 2-(3-methyl-1H-1,2,4-triazol-5-yl)-N-((9S,12S)-5^4-methyl-8,11,14-trioxo-9-phenethyl-4-oxa-7,10-diaza-1(3,1)-piperidina-5(1,3)-benzenacyclotetradecaphane-12-yl)acetamide] | < 100 | < 100
9 | Cc1ccc2cc1CNC(=O)C(CCc1cnc3cccnc3c1)NC(=O)[C@@H](NC(=O)OCc1ccccc1)CC(=O)N1CCCC(CCO2)C1 (stereo partly drawn) [Compound 511, benzyl ((12S)-9-(2-(1,5-naphthyridin-3-yl)ethyl)-5^4-methyl-8,11,14-trioxo-4-oxa-7,10-diaza-1(3,1)-piperidina-5(1,3)-benzenacyclotetradecaphane-12-yl)carbamate] | < 100 | < 100

Results, then the compound that gave them:

Row | IC50 [1] [nM] | IC50 [2] [nM] | SMILES
10 | < 100 | < 100 | CC(=O)N[C@H]1CC(=O)N2CCCC(CCOc3ccc(C)c(c3)CNC(=O)C(Cn3c(=O)oc4ccccc43)NC1=O)C2 (stereo partly drawn) [Compound 555, N-((12S)-5^4-methyl-8,11,14-trioxo-9-((2-oxobenzo[d]oxazol-3(2H)-yl)methyl)-4-oxa-7,10-diaza-1(3,1)-piperidina-5(1,3)-benzenacyclotetradecaphane-12-yl)acetamide]
11 | < 100 | < 100 | Cc1ccc2cc1CNC(=O)[C@H](CCc1ccccc1)NC(=O)[C@@H](NC(=O)Cc1nnc(N)[nH]1)CC(=O)N1CCCC(CCO2)C1 (stereo partly drawn) [Compound 340, 2-(5-amino-1H-1,2,4-triazol-3-yl)-N-((9S,12S)-5^4-methyl-8,11,14-trioxo-9-phenethyl-4-oxa-7,10-diaza-1(3,1)-piperidina-5(1,3)-benzenacyclotetradecaphane-12-yl)acetamide]
12 | < 100 | < 100 | Cc1ccc2cc1CNC(=O)[C@H](CCc1ccccc1)NC(=O)[C@@H](NC(=O)Cc1nnc(N)s1)CC(=O)N1CCCC(CCO2)C1 (stereo partly drawn) [Compound 310, 2-(5-amino-1,3,4-thiadiazol-2-yl)-N-((9S,12S)-54-methyl-8,11,14-trioxo-9-phenethyl-4-oxa-7,10-diaza-1(3,1)-piperidina-5(1,3)-benzenacyclotetradecaphane-12-yl)acetamide]
13 | < 100 | < 100 | COC(=O)N(CC1NC(=O)[C@@H](NC(=O)OCc2ccccc2)CC(=O)N2CCCC(CCOc3ccc(C)c(c3)CNC1=O)C2)c1ccccc1 (stereo partly drawn) [Compound 513, methyl (((12R)-12-(((benzyloxy)carbonyl)amino)-5^4-methyl-8,11,14-trioxo-4-oxa-7,10-diaza-1(3,1)-piperidina-5(1,3)-benzenacyclotetradecaphane-9-yl)methyl)(phenyl)carbamate]
14 | < 100 | 100 to 500 | Cc1ccc2cc1CNC(=O)[C@H](CCc1ccccc1)NC(=O)[C@@H](NC(=O)CC1=NN(c3ccccc3)C(=O)C1)CC(=O)N1CCCC(CCO2)C1 (stereo partly drawn) [Compound 334, N-((9S,12S)-5^4-methyl-8,11,14-trioxo-9-phenethyl-4-oxa-7,10-diaza-1(3,1)-piperidina-5(1,3)-benzenacyclotetradecaphane-12-yl)-2-(5-oxo-1-phenyl-4,5-dihydro-1H-pyrazol-3-yl)acetamide]
15 | < 100 | 100 to 500 | Cc1ccc2cc1CNC(=O)[C@H](CCc1ccccc1)NC(=O)[C@@H](NC(=O)OCc1ccccc1)CC(=O)N1CC(C)CC(CCO2)C1 (stereo partly drawn) [Compound 337, benzyl ((9S,12S)-1^5,5^4-dimethyl-8,11,14-trioxo-9-phenethyl-4-oxa-7,10-diaza-1(3,1)-piperidina-5(1,3)-benzenacyclotetradecaphane-12-yl)carbamate]
16 | < 100 | > 5000 | Cc1cc2cc(c1C)CNC(=O)C(c1cnn(C)c1)NC(=O)CCC(=O)N1CCCC(CCO2)C1 (stereo not shown) [Compound 355, 5^4,5^5-dimethyl-9-(1-methyl-1H-pyrazol-4-yl)-4-oxa-7,10-diaza-1(3,1)-piperidina-5(1,3)-benzenacyclotetradecaphane-8,11,14-trione]
17 | < 100 | < 100 | Cc1ccc2cc1CNC(=O)C(CCc1cnccn1)NC(=O)[C@@H](NC(=O)C1(c3ccc(N)cc3)CC1)CC(=O)N1CCCC(CCO2)C1 (stereo partly drawn) [Compound 371, 1-(4-aminophenyl)-N-((9S,12S)-5^4-methyl-8,11,14-trioxo-9-(2-(pyrazin-2-yl)ethyl)-4-oxa-7,10-diaza-1(3,1)-piperidina-5(1,3)-benzenacyclotetradecaphane-12-yl)cyclopropane-1-carboxamide]

Source: patent US20240415819A1, “MACROCYCLIC COMPOUNDS AS PROTEASOME SUBUNIT BETA TYPE-5 INHIBITORS” (Lead Discovery Center GmbH, priority 2021, published 2024)
